In the test the target is FGFR1 kinase (FGFR1 kinase enzyme system, Promega V9321) (Homo sapiens, UniProt P11362). The test can be described thus: ADP-Glo luminescence kinase assay. The test is classed as biochemical. On the technique in general: In ADP-Glo the light output rises with the ADP produced.

The values that follow come from doi:10.1101/2021.12.02.470934v1 (biorxiv, 2021).

FGFR1 kinase (FGFR1 kinase enzyme system, Promega V9321), sequence (P11362 398-822 limits assumed): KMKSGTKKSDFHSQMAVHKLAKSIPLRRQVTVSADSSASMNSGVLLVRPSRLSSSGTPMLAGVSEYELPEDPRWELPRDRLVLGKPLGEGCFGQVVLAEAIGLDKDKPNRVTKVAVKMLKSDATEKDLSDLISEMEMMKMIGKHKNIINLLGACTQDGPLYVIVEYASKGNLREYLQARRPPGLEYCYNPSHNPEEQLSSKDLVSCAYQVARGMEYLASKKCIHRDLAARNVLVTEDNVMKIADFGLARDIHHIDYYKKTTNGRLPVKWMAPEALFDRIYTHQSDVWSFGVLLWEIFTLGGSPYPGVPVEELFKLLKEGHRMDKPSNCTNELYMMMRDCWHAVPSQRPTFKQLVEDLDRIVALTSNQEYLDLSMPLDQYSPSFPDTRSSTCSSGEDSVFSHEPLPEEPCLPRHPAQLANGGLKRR

What is called IC50 is the concentration that gives 50% inhibition. Read a high IC50 as weaker potency in that assay. In turn, `CCN(CC)CCCC(C)Nc1c2ccc(Cl)cc2nc2ccc(OC)cc12` (stereo not shown) [Quinacrine] registered an IC50 of 1.05 µM.
